The values that follow come from patent US11723907B2, “Anti-aging compounds” (THE CLEVELAND CLINIC FOUNDATION, priority 2017, dated 2023).

For data set [1] the following is noted: cited from earlier work.
In the next data set the test system is cytochrome c. Nature of the data set: Enzymatic NAD(P)H oxidation / cytochrome c reduction catalyzed by N2N1. To be noted: inhibitor 2 μM. The format is biochemical. As to the method:
FIGS. 5A-5C provide graphs and schemes relating to the N2N1 mechanism of action. […] No specific substrate was added into reaction mix, therefore, it was concluded that reaction was driven by slow reduction of molecular oxygen dissolved into reaction buffer. The hypothetical reaction equation is shown below reaction plots. (B) The proposed molecular mechanism of possible substrate reduction catalyzed by N2N1. (C) Addition of peroxide or cytochrome c into reaction allowed us to identify cytochrome c as the most preferable substrate for the N2N1 driven enzymatic reaction. […] It was interesting to notice that addition of cytochrome c to non-enzymatic reaction reduced the reaction rate. […] The hypothetical reaction equation is show below the reaction plots.
FIGS. 6A-6B provide graphs showing the enzymatic reduction of cytochrome C catalyzed by N2N1 can utilize both NADH and NADPH. (A) The enzymatic electrons transfer from NADH to cytochrome c driven by N2N1 was monitored by decrease in absorption at 340 nm (NADH) and increase in absorption at 550 nm (cytochrome c). The absorbance spectrum was screened at the end of the reaction (˜1 hour). The hypothetical reaction equation is shown below the reaction plots. (B) The enzymatic electrons transfer from NADPH to cytochrome c driven by N2N1 was monitored by decrease in absorption at 340 nm (NADPH) and increase in absorption at 550 nm (cytochrome c). The hypothetical reaction equation is shown below the reaction plots.
To evaluate possible participation of mitochondrial NADH oxidoreductases, in particular Complex I and III, the […] was run in the presence of rotenone or antimycin A (2 μM). The acquired data allowed us to specify the most probable candidate that carry out the transfer electrons from NAD(P)H to cytochrome C driven by N2N1. The NQO1 protein would be the most likely candidate, while proteins from CYB5 family still cannot be ruled out.
Bonkowski et al., Nature reviews. Molecular cell biology 17, 679-690 (2016); Orr et al., Antioxidants & redox signaling 19, 788-803 (2013). It quite possible, that NAD(P)H oxidation catalyzed by N2N1 is performed by NADH:cytochrome b5 reductases (CYB5 . . . ) or NAD(P)H:quinone oxidoreductase (NQO1) reductase (FIG. 3C). The inventors found by RNA-seq analysis that fourteen genes from CYB5 family were expressed in normal fibroblast. NQO1 was also detected at the high level of expression. These reductases connect aerobic metabolism with aging by directed electron flow from NAD(P)H to oxygen, cytochrome C, and peroxide. Jimenez-Hidalgo et al., Aging cell 8, 140-151 (2009). […]

For the compound `CO[C@H]1C[C@@H]2CC[C@@H](C)[C@@](O)(O2)C(=O)C(=O)N2CCCC[C@H]2C(=O)O[C@H]([C@H](C)C[C@@H]2CC[C@@H](O)[C@H](OC)C2)CC(=O)[C@H](C)/C=C(\C)[C@@H](O)[C@@H](OC)C(=O)[C@H](C)C[C@H](C)/C=C/C=C/C=C/1C` [Rapamycin], in data set [1], the water solubility entry is reported as “poor”.

Consider `C=C(C)[C@H]1Cc2c(ccc3c2O[C@@H]2COc4cc(OC)c(OC)cc4[C@@H]2C3=O)O1` [rotenone, reference compound], for which the “suppression of enzymatic reduction of cytochrome c catalyzed by N2N1” value in the data set on cytochrome c was “did not suppress”.

For antimycin A [reference compound], in the data set with cytochrome c, the “suppression of enzymatic reduction of cytochrome c catalyzed by N2N1” value is recorded as “did not suppress”.
